Converted amounts (≈) assume the structure as drawn. Read-outs that look alike come from different tables or passages of the source.
Assays:
Assay type in all cases: cell-based
[1] = tested on: Proteus rettgeri 1601; assay: Minimum inhibitory concentration
[2] = tested on: Pseudomonas aeruginosa 1100; assay: Minimum inhibitory concentration
[3] = tested on: Proteus morganii 1512; assay: Minimum inhibitory concentration
[4] = tested on: Staphylococcus aureus 167; assay: Minimum inhibitory concentration
[5] = tested on: Pseudomonas aeruginosa 1080; assay: Minimum inhibitory concentration
[6] = tested on: Proteus mirabilis 1306; assay: Minimum inhibitory concentration
[7] = tested on: Escherichia coli 620; assay: Minimum inhibitory concentration
[8] = tested on: Pseudomonas aeruginosa Scr.; assay: Minimum inhibitory concentration; conditions: read-out: Minimum inhibitory concentration
[9] = tested on: Staphylococcus aureus 109; assay: Minimum inhibitory concentration
[10] = tested on: butirosin-resistant as well as butirosin-sensitive strains; assay: Antibacterial activity, butirosin-resistant and butirosin-sensitive strains
[11] = tested on: Staphylococcus epidermidis; assay: Minimum inhibitory concentration; conditions: read-out: Minimum inhibitory concentration
[12] = tested on: Proteus vulgaris 1404; assay: Minimum inhibitory concentration
[13] = tested on: Staphylococcus aureus 126; assay: Minimum inhibitory concentration
[14] = tested on: Salmonella typhi-murium; assay: Minimum inhibitory concentration; conditions: read-out: Minimum inhibitory concentration
[15] = tested on: Escherichia coli NIHJ; assay: Minimum inhibitory concentration; conditions: read-out: Minimum inhibitory concentration
[16] = tested on: Pseudomonas aeruginosa 1016; assay: Minimum inhibitory concentration
[17] = tested on: Escherichia coli 665; assay: Minimum inhibitory concentration
[18] = tested on: Proteus mirabilis 1312; assay: Minimum inhibitory concentration
[19] = tested on: Pseudomonas schuylkilliensis; assay: Minimum inhibitory concentration; conditions: read-out: Minimum inhibitory concentration
[20] = tested on: Escherichia coli 704; assay: Minimum inhibitory concentration
[21] = tested on: Proteus morganii 1501; assay: Minimum inhibitory concentration
[22] = tested on: Staphylococcus aureus 209 P; assay: Minimum inhibitory concentration; conditions: read-out: Minimum inhibitory concentration
[23] = tested on: Bacillus anthracis; assay: microbe, parasite or virus in culture; conditions: read-out: Minimum inhibitory concentration
[24] = tested on: Proteus vulgaris 1416; assay: Minimum inhibitory concentration
[25] = tested on: Staphylococcus aureus 163; assay: Minimum inhibitory concentration
[26] = tested on: Shigella flexneri 2a; assay: Minimum inhibitory concentration; conditions: Hurt's infusion agar
[27] = tested on: Bacillus subtilis PCI-219; assay: Minimum inhibitory concentration
[28] = tested on: Salmonella enteritidis; assay: Minimum inhibitory concentration; conditions: Salmonella enterica, read-out: Minimum inhibitory concentration
[29] = tested on: Klebsiella 813; assay: Minimum inhibitory concentration
[30] = tested on: Escherichia coli 605; assay: Minimum inhibitory concentration
[31] = tested on: Pseudomonas aeruginosa 1055; assay: Minimum inhibitory concentration
[32] = tested on: Klebsiella 806; assay: Minimum inhibitory concentration
[33] = tested on: Proteus rettgeri 1602; assay: Minimum inhibitory concentration
[34] = tested on: Shigella sonnei; assay: Minimum inhibitory concentration; conditions: Hurt's infusion agar

**Q.** Which results are given for `NCC[C@H](O)C(=O)N[C@@H]1C[C@H](N)[C@@H](O[C@H]2O[C@H](CN)CC[C@H]2N)[C@H](O[C@@H]2O[C@H](CN)[C@H](O)[C@H]2O)[C@H]1O` [ATBA, 5"-amino-3',4',5"-trideoxybutirosin A]?
**A.** MIC ([1]; Providencia rettgeri, Proteus rettgeri 1601, Hurt's infusion agar, read-out: Minimum inhibitory concentration): 1.5 µg/mL (≈ 2.87 µM); MIC ([2]; Pseudomonas aeruginosa 1100, Hurt's infusion agar, read-out: Minimum inhibitory concentration): 25 µg/mL (≈ 47.8 µM); MIC ([3]; Morganella morganii, Proteus morganii 1512, Hurt's infusion agar, read-out: Minimum inhibitory concentration): 3.1 µg/mL (≈ 5.93 µM); MIC ([4]; Staphylococcus aureus 167, Hurt's infusion agar, read-out: Minimum inhibitory concentration): 0.1 µg/mL (≈ 0.191 µM); MIC ([5]; Pseudomonas aeruginosa 1080, Hurt's infusion agar, read-out: Minimum inhibitory concentration): 100 µg/mL (≈ 191 µM); MIC ([6]; Proteus mirabilis 1306, Hurt's infusion agar, read-out: Minimum inhibitory concentration): 25 µg/mL (≈ 47.8 µM); MIC ([7]; Escherichia coli 620, Hurt's infusion agar, read-out: Minimum inhibitory concentration): 12.5 µg/mL (≈ 23.9 µM); MIC ([8]; Pseudomonas aeruginosa Scr., Hurt's infusion agar): 1.5 µg/mL (≈ 2.87 µM); MIC ([9]; Staphylococcus aureus 109, Hurt's infusion agar, read-out: Minimum inhibitory concentration): 3.1 µg/mL (≈ 5.93 µM); antibacterial activity (in words) [10]: extremely active; MIC ([11]; Hurt's infusion agar): 1.5 µg/mL (≈ 2.87 µM); MIC ([12]; Proteus vulgaris 1404, Hurt's infusion agar, read-out: Minimum inhibitory concentration): 6.2 µg/mL (≈ 11.9 µM); MIC ([13]; Staphylococcus aureus 126, Hurt's infusion agar, read-out: Minimum inhibitory concentration): 1.5 µg/mL (≈ 2.87 µM); MIC [14]: 6.2 µg/mL (≈ 11.9 µM); MIC ([15]; Escherichia coli NIHJ, Hurt's infusion agar): 3.1 µg/mL (≈ 5.93 µM); MIC ([16]; Pseudomonas aeruginosa 1016, Hurt's infusion agar, read-out: Minimum inhibitory concentration): 3.1 µg/mL (≈ 5.93 µM); MIC ([17]; Escherichia coli 665, Hurt's infusion agar, read-out: Minimum inhibitory concentration): 12.5 µg/mL (≈ 23.9 µM); MIC ([18]; Proteus mirabilis 1312, Hurt's infusion agar, read-out: Minimum inhibitory concentration): 50 µg/mL (≈ 95.7 µM); MIC ([19]; Pseudomonas schuylkilliensis, Hurt's infusion agar): 6.2 µg/mL (≈ 11.9 µM); MIC ([20]; Escherichia coli 704, Hurt's infusion agar, read-out: Minimum inhibitory concentration): 6.2 µg/mL (≈ 11.9 µM); MIC ([21]; Morganella morganii, Proteus morganii 1501, Hurt's infusion agar, read-out: Minimum inhibitory concentration): 1.5 µg/mL (≈ 2.87 µM); MIC ([22]; Staphylococcus aureus 209 P, Hurt's infusion agar): 0.2 µg/mL (≈ 0.383 µM); MIC [23]: 0.1 µg/mL (≈ 0.191 µM); MIC ([24]; Proteus vulgaris 1416, Hurt's infusion agar, read-out: Minimum inhibitory concentration): 50 µg/mL (≈ 95.7 µM); MIC ([25]; Staphylococcus aureus 163, Hurt's infusion agar, read-out: Minimum inhibitory concentration): 25 µg/mL (≈ 47.8 µM); MIC [26]: 3.1 µg/mL (≈ 5.93 µM); MIC ([27]; PCI219, Bacillus subtilis PCI-219, Hurt's infusion agar, read-out: Minimum inhibitory concentration): 0.1 µg/mL (≈ 0.191 µM); MIC ([28]; Salmonella enteritidis, Hurt's infusion agar): 6.2 µg/mL (≈ 11.9 µM); MIC ([29]; Klebsiella 813, Hurt's infusion agar, read-out: Minimum inhibitory concentration): 25 µg/mL (≈ 47.8 µM); MIC ([30]; Escherichia coli 605, Hurt's infusion agar, read-out: Minimum inhibitory concentration): 25 µg/mL (≈ 47.8 µM); MIC ([31]; Pseudomonas aeruginosa 1055, Hurt's infusion agar, read-out: Minimum inhibitory concentration): 6.2 µg/mL (≈ 11.9 µM); MIC ([32]; Klebsiella 806, Hurt's infusion agar, read-out: Minimum inhibitory concentration): 6.2 µg/mL (≈ 11.9 µM); MIC ([33]; Providencia rettgeri, Proteus rettgeri 1602, Hurt's infusion agar, read-out: Minimum inhibitory concentration): 12.5 µg/mL (≈ 23.9 µM); MIC [34]: 3.1 µg/mL (≈ 5.93 µM)

**Q.** `NCC[C@H](O)C(=O)N[C@@H]1C[C@H](N)[C@@H](O[C@H]2O[C@H](CN)[C@@H](O)[C@H](O)[C@H]2N)[C@H](O[C@@H]2O[C@H](CO)[C@H](O)[C@H]2O)[C@H]1O` [BA, butirosin A, reference compound] was tested. Which MIC ([1]; Providencia rettgeri, 1601, read-out: Minimum inhibitory concentration) did it give?
**A.** 6.2 µg/mL (≈ 11.2 µM)

**Q.** And the MIC ([2]; Pseudomonas aeruginosa, 1100, read-out: Minimum inhibitory concentration)?
**A.** > 200 µg/mL

**Q.** What about the MIC ([3]; Morganella morganii, 1512, read-out: Minimum inhibitory concentration) of the same compound?
**A.** 25 µg/mL (≈ 45 µM)

**Q.** And the MIC ([4]; Staphylococcus aureus, 167, read-out: Minimum inhibitory concentration)?
**A.** 200 µg/mL (≈ 360 µM)

**Q.** What about the MIC ([5]; Pseudomonas aeruginosa, 1080, read-out: Minimum inhibitory concentration) of the same compound?
**A.** > 200 µg/mL

**Q.** What about the MIC ([6]; Proteus mirabilis, 1306, read-out: Minimum inhibitory concentration) of the same compound?
**A.** 50 µg/mL (≈ 90 µM)

**Q.** And the MIC ([7]; Escherichia coli, 620, read-out: Minimum inhibitory concentration)?
**A.** > 200 µg/mL

**Q.** What about the MIC ([8]; Pseudomonas aeruginosa) of the same compound?
**A.** 12.5 µg/mL (≈ 22.5 µM)

**Q.** And the MIC ([9]; Staphylococcus aureus, 109, read-out: Minimum inhibitory concentration)?
**A.** > 200 µg/mL

**Q.** And the MIC [11]?
**A.** 0.4 µg/mL (≈ 0.72 µM)

**Q.** And the MIC ([12]; Proteus vulgaris, 1404, read-out: Minimum inhibitory concentration)?
**A.** 25 µg/mL (≈ 45 µM)

**Q.** And the MIC ([13]; Staphylococcus aureus, 126, read-out: Minimum inhibitory concentration)?
**A.** 6.5 µg/mL (≈ 11.7 µM)

**Q.** And the MIC ([14]; Salmonella typhi-murium, Hurt's infusion agar)?
**A.** 12.5 µg/mL (≈ 22.5 µM)

**Q.** And the MIC ([15]; Escherichia coli)?
**A.** 3.1 µg/mL (≈ 5.58 µM)

**Q.** And the MIC ([16]; Pseudomonas aeruginosa, 1016, read-out: Minimum inhibitory concentration)?
**A.** > 200 µg/mL

**Q.** What about the MIC ([17]; Escherichia coli, 665, read-out: Minimum inhibitory concentration) of the same compound?
**A.** > 200 µg/mL

**Q.** What about the MIC ([18]; Proteus mirabilis, 1312, read-out: Minimum inhibitory concentration) of the same compound?
**A.** 100 µg/mL (≈ 180 µM)

**Q.** And the MIC ([19]; Pseudomonas)?
**A.** 25 µg/mL (≈ 45 µM)

**Q.** What about the MIC ([20]; Escherichia coli, 704, read-out: Minimum inhibitory concentration) of the same compound?
**A.** 12.5 µg/mL (≈ 22.5 µM)

**Q.** What about the MIC ([21]; Morganella morganii, 1501, read-out: Minimum inhibitory concentration) of the same compound?
**A.** 3.1 µg/mL (≈ 5.58 µM)

**Q.** What about the MIC ([22]; Staphylococcus aureus, 209P) of the same compound?
**A.** 1.5 µg/mL (≈ 2.7 µM)

**Q.** What about the MIC [23] of the same compound?
**A.** 0.8 µg/mL (≈ 1.44 µM)

**Q.** And the MIC ([24]; Proteus vulgaris, 1416, read-out: Minimum inhibitory concentration)?
**A.** 100 µg/mL (≈ 180 µM)

**Q.** What about the MIC ([25]; Staphylococcus aureus, 163, read-out: Minimum inhibitory concentration) of the same compound?
**A.** > 200 µg/mL

**Q.** What about the MIC [26] of the same compound?
**A.** 6.2 µg/mL (≈ 11.2 µM)

**Q.** And the MIC ([27]; Bacillus subtilis, PCI219, read-out: Minimum inhibitory concentration)?
**A.** 0.4 µg/mL (≈ 0.72 µM)

**Q.** And the MIC ([28]; ENTERITIDIS)?
**A.** 12.5 µg/mL (≈ 22.5 µM)

**Q.** And the MIC ([29]; Klebsiella, 813, read-out: Minimum inhibitory concentration)?
**A.** 50 µg/mL (≈ 90 µM)

**Q.** And the MIC ([30]; Escherichia coli, 605, read-out: Minimum inhibitory concentration)?
**A.** > 200 µg/mL

**Q.** What about the MIC ([31]; Pseudomonas aeruginosa, 1055, read-out: Minimum inhibitory concentration) of the same compound?
**A.** > 200 µg/mL

**Q.** What about the MIC ([32]; Klebsiella, 806, read-out: Minimum inhibitory concentration) of the same compound?
**A.** 3.1 µg/mL (≈ 5.58 µM)

**Q.** And the MIC ([33]; Providencia rettgeri, 1602, read-out: Minimum inhibitory concentration)?
**A.** > 200 µg/mL

**Q.** What about the MIC [34] of the same compound?
**A.** 6.2 µg/mL (≈ 11.2 µM)
